In paper PMC9962638, “Integrating Siderophore Substructures in Thiol-Based Metallo-β-Lactamase Inhibitors” (Molecules, 2023):

Target: T1, NDM-1 (Klebsiella pneumoniae, UniProt C7C422)
T1 construct: gene blaNDM-1; recombinant, expressed in E. coli
Experiment: fluorescence enzyme assay, fluorocillin hydrolysis
Type: biochemical
Excerpt: fluorescence enzyme assay, fluorocillin hydrolysis on NDM-1

T1 sequence (C7C422 29-270 limits assumed): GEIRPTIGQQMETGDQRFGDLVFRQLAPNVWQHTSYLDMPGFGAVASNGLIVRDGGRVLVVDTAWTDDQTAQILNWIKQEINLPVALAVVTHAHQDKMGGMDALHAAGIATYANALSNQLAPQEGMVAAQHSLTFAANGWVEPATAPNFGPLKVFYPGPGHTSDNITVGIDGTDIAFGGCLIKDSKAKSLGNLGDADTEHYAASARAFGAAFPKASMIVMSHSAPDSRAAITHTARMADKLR

Compound	IC50 [nM]
O=C(O)[C@H]1CCCCN1C(=O)C(CS)Cc1cccc(O)c1O (stereo partly drawn) [compound 2, (2R)-1-(2-(2,3-dihydroxybenzyl)-3-mercaptopropanoyl)piperidine-2-carboxylic acid]	4300 ± 440
C[C@H](CS)C(=O)N1CCN(C(=O)CCc2ccc(O)c(O)c2)C[C@@H]1C(=O)O [compound 3, (R)-4-(3-(3,4-dihydroxyphenyl)propanoyl)-1-((S)-3-mercapto-2-methylpropanoyl)piperazine-2-carboxylic acid]	130 ± 17
COc1cccc(CC(CS)C(=O)N2CCCC[C@@H]2C(=O)O)c1OC (stereo partly drawn) [compound 12, (2R)-1-(2-(2,3-dimethoxybenzyl)-3-mercaptopropanoyl)piperidine-2-carboxylic acid]	1900 ± 270
COc1ccc(CCC(=O)N2CCN(C(=O)[C@H](C)CS)[C@@H](C(=O)O)C2)cc1OC [compound 18, (R)-4-(3-(3,4-dimethoxyphenyl)propanoyl)-1-((S)-3-mercapto-2-methylpropanoyl)piperazine-2-carboxylic acid]	220 ± 16
